The text below walks through data of patent EP3463364B1, “PYRAZINE DERIVATIVES FOR USE IN THE TREATMENT OF DISEASES ASSOCIATED WITH CELL CYCLE DYSREGULATION” (University of Patras, priority 2016, dated 2017).

Test [1] addresses T1, exogenous Geminin-Cdtl protein complex (Homo sapiens, UniProt O75496+Q9H211).
T1 construct: expressed in transfected cells; host or cells: MCF7
T1 sequence (Q9H211 1-546): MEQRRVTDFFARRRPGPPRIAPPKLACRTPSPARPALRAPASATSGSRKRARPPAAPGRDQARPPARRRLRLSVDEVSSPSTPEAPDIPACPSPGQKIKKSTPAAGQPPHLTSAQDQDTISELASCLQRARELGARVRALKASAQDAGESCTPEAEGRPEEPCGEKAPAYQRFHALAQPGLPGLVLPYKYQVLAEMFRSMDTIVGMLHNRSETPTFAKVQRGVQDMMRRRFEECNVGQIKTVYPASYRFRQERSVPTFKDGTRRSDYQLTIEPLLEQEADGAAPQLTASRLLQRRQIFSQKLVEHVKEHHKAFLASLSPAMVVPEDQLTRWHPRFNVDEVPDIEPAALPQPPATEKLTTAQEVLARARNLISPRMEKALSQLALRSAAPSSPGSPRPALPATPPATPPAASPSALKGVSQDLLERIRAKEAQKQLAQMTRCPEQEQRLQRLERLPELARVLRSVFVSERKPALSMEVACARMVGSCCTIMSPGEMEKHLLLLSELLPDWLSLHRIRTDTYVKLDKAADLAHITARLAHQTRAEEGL
T1 sequence (O75496 1-209): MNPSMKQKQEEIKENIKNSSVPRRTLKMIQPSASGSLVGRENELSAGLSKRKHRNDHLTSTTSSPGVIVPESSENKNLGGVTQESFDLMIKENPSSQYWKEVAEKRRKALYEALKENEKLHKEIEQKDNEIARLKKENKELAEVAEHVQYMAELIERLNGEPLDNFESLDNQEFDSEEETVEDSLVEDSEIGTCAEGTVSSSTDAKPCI
Briefly: FRET acceptor photobleaching cellular assay in co-transfected MCF7 cells (Cdt1-GFP & Geminin-dhcRed). It is filed as cell-based. The conditions noted are these: 100µM, 24-hour incubation, MCF7 cells co-transfected with Cdt1-GFP & Geminin-dhcRed (Fig. 3). On the procedure: A cellular assay was developed and applied using epithelial cells of breast adenocarcinoma (MCF7), for the purpose of the ex vivo study of the ability of the synthetic chemical compound AF-615/30368009 to inhibit formation and/or disrupt the exogenous Geminin-Cdtl protein complex.
The appropriate number of cells was seeded onto glass coverslips and cells were allowed in culture in order to adhere. Then they were transiently co-transfected with plasmid expression vectors pcDNA3.1-EGFP and pdiHcRed-N1 containing the DNA regions encoding for the proteins Cdtl-GFP and Geminin-dhcRed respectively. Three to five hours after co-transfection, the medium was removed and replaced with fresh medium which contained the synthetic chemical compound AF-615/30368009 at a concentration of 100µM. […]
MCF7 cancer cells fixed as described above were used to perform FRET acceptor photobleaching. In order to quantify the efficiency (E) of the FRET phenomenon, the following equation was used: (4) E = (Dpost - Dpre)/Dpost, wherein Dpre and Dpost is the mean value of fluorescence intensity of the donor before and after photobleaching of the acceptor, respectively.
For the purposes of this invention the inhibitory effect of the synthetic compound AF-615/30368009 on the exogenous Geminin-Cdtl protein complex was calculated as the percent (%) change in efficiency (E) of the FRET phenomenon. […]

Another test has as its system MCF7 cancer cells. Briefly: Cell cycle progression by propidium iodide flow cytometry, cancer cells. It is filed as cell-based. The conditions noted are these: 100 µM, 23hrs. How it is done:
Since the proteins Geminin and Cdtl are key regulators of the cell cycle, the effect of the synthetic compound on the development of the cancer cell and normal cell cycle was studied. Staining of the genetic material of the cells was performed with propidium iodide and the technique of flow cytometry was applied for their separation, based on the amount of genetic material.
MCF7 cells were used as cancer cells, whereas primary cells and particularly embryonic mouse fibroblasts (Mouse Embryonic Fibroblasts, MEFs) were used as normal cells. The cells were incubated with the synthetic chemical compound AF-615/30368009 at a concentration of 100 µM and cultured for 23hrs in 100-mm dishes, to 80% confluency. Cells which had been incubated with only DMSO were used as a negative control sample. The next day of the incubation, cells were harvested using trypsin. […] The experiments were conducted using a Becton Dickinson flow cytometer and the data were analyzed by the WinMDi software version 2.8.
The graphs shown in Fig. 5 are representative of at least two independent experiments. The x axis represents the intensity of the fluorescence of propidium iodide and proportionally the amount of DNA content of the cells, while the y-axis corresponds to the number of events for each phase of the cell cycle.
Background: In flow cytometry, cells or beads pass a laser one at a time.

For `O=C(NNC(=S)N1CCOCC1)c1cnccn1` [AF-615/30368009, N'-(morpholine-4-carbothioyl)pyrazine-2-carbohydrazide], in test [1], the “efficiency (E) of the FRET phenomenon” value is “decrease in (E), although not statistically significant”. Besides, the “percentage (%) of cells in G0/G1 and S phases” value with MCF7 cancer cells (MCF7, compared to DMSO control (Fig. 5B vs 5A)) is “significant increase”. Further, the “population of cells corresponding to the G2/M phase of the cell cycle” value with MCF7 cancer cells (MCF7, in comparison to DMSO control (Fig. 5B vs 5A)) is on record as “extremely limited”.
